Reference: PubChem BioAssay (NCI)
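These data come from cells grown in 96-well plates and exposed to compound for 48 hours at five concentrations. Here, GI50 denotes the concentration required for 50% inhibition of growth. TGI is the concentration that stops growth completely.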

Experiments:
Test in all cases: inhibition of tumour cell growth, NCI panel, 48 h
A498 renal = test system: A498 renal
RPMI-8226 leukemia = test system: RPMI-8226 leukemia
NCI-H460 lung = test system: NCI-H460 lung
SW-620 colon = test system: SW-620 colon
786-0 renal = test system: 786-0 renal
NCI-H226 lung = test system: NCI-H226 lung
HL-60(TB) leukemia = test system: HL-60(TB) leukemia
HT29 colon = test system: HT29 colon
K-562 leukemia = test system: K-562 leukemia
MDA-MB-435 = test system: MDA-MB-435
T-47D breast = test system: T-47D breast
NCI/ADR-RES ovarian = test system: NCI/ADR-RES ovarian
BT-549 breast = test system: BT-549 breast
MCF7 breast = test system: MCF7 breast
CAKI-1 renal = test system: CAKI-1 renal
KM12 colon = test system: KM12 colon
SNB-19 CNS = test system: SNB-19 CNS
EKVX NSCLC = test system: EKVX NSCLC
RXF 393 renal = test system: RXF 393 renal
SF-539 CNS = test system: SF-539 CNS
IGROV1 ovarian = test system: IGROV1 ovarian
A549 NSCLC = test system: A549 NSCLC
U251 CNS = test system: U251 CNS
HCT-116 colon = test system: HCT-116 colon
SK-MEL-5 melanoma = test system: SK-MEL-5 melanoma
MALME-3M melanoma = test system: MALME-3M melanoma
NCI-H522 lung = test system: NCI-H522 lung
OVCAR-3 ovarian = test system: OVCAR-3 ovarian
M14 melanoma = test system: M14 melanoma
SF-268 CNS = test system: SF-268 CNS
TK-10 renal = test system: TK-10 renal
SN12C renal = test system: SN12C renal
SF-295 CNS = test system: SF-295 CNS
UACC-257 melanoma = test system: UACC-257 melanoma
COLO 205 colon = test system: COLO 205 colon
SK-MEL-2 melanoma = test system: SK-MEL-2 melanoma
NCI-H23 lung = test system: NCI-H23 lung
OVCAR-8 ovarian = test system: OVCAR-8 ovarian
HCC-2998 colon = test system: HCC-2998 colon
SNB-75 CNS = test system: SNB-75 CNS
SK-OV-3 ovarian = test system: SK-OV-3 ovarian
SR leukemia = test system: SR leukemia
HOP-62 NSCLC = test system: HOP-62 NSCLC
OVCAR-5 ovarian = test system: OVCAR-5 ovarian
PC-3 prostate = test system: PC-3 prostate
UACC-62 melanoma = test system: UACC-62 melanoma
MDA-MB-231 breast = test system: MDA-MB-231 breast
LOX IMVI melanoma = test system: LOX IMVI melanoma
ACHN renal = test system: ACHN renal
MOLT-4 leukemia = test system: MOLT-4 leukemia
CCRF-CEM leukemia = test system: CCRF-CEM leukemia
DU-145 prostate = test system: DU-145 prostate
HOP-92 NSCLC = test system: HOP-92 NSCLC
HCT-15 colon = test system: HCT-15 colon
OVCAR-4 ovarian = test system: OVCAR-4 ovarian
SK-MEL-28 melanoma = test system: SK-MEL-28 melanoma
UO-31 renal = test system: UO-31 renal
HS 578T breast = test system: HS 578T breast

Compound: O=c1oc2ccc(Br)cc2c(=O)n1-c1ccc(Br)cc1F
- GI50 (A498 renal): 245 nM
- TGI (A498 renal): 774 nM
- GI50 (RPMI-8226 leukemia): 264 nM
- TGI (RPMI-8226 leukemia): 1060 nM
- GI50 (NCI-H460 lung): 511 nM
- TGI (NCI-H460 lung): 11100 nM
- GI50 (SW-620 colon): 1220 nM
- TGI (SW-620 colon): 11200 nM
- GI50 (786-0 renal): 2060 nM
- TGI (786-0 renal): 4910 nM
- GI50 (NCI-H226 lung): 1260 nM
- TGI (NCI-H226 lung): 4720 nM
- GI50 (HL-60(TB) leukemia): 538 nM
- TGI (HL-60(TB) leukemia): 2530 nM
- GI50 (HT29 colon): 3090 nM
- TGI (HT29 colon): 12700 nM
- GI50 (K-562 leukemia): 465 nM
- TGI (K-562 leukemia): > 100000 nM
- GI50 (MDA-MB-435): 640 nM
- TGI (MDA-MB-435): 8870 nM
- GI50 (T-47D breast): 341 nM
- TGI (T-47D breast): 3840 nM
- GI50 (NCI/ADR-RES ovarian): 553 nM
- TGI (NCI/ADR-RES ovarian): 4330 nM
- GI50 (BT-549 breast): 452 nM
- TGI (BT-549 breast): 2200 nM
- GI50 (MCF7 breast): 1070 nM
- TGI (MCF7 breast): 8170 nM
- GI50 (CAKI-1 renal): 507 nM
- TGI (CAKI-1 renal): 3930 nM
- GI50 (KM12 colon): 2060 nM
- TGI (KM12 colon): 4930 nM
- GI50 (SNB-19 CNS): 378 nM
- TGI (SNB-19 CNS): 46700 nM
- GI50 (EKVX NSCLC): 1510 nM
- TGI (EKVX NSCLC): 8240 nM
- GI50 (RXF 393 renal): 680 nM
- TGI (RXF 393 renal): 3730 nM
- GI50 (SF-539 CNS): 501 nM
- TGI (SF-539 CNS): 3540 nM
- GI50 (IGROV1 ovarian): 337 nM
- TGI (IGROV1 ovarian): 11900 nM
- GI50 (A549 NSCLC): 2050 nM
- TGI (A549 NSCLC): > 35500 nM
- GI50 (U251 CNS): 725 nM
- TGI (U251 CNS): 9820 nM
- GI50 (HCT-116 colon): 555 nM
- TGI (HCT-116 colon): 2100 nM
- GI50 (SK-MEL-5 melanoma): 269 nM
- TGI (SK-MEL-5 melanoma): 853 nM
- GI50 (MALME-3M melanoma): 436 nM
- TGI (MALME-3M melanoma): 2550 nM
- GI50 (NCI-H522 lung): 351 nM
- TGI (NCI-H522 lung): 2920 nM
- GI50 (OVCAR-3 ovarian): 477 nM
- TGI (OVCAR-3 ovarian): 6620 nM
- GI50 (M14 melanoma): 816 nM
- TGI (M14 melanoma): 3590 nM
- GI50 (SF-268 CNS): 688 nM
- TGI (SF-268 CNS): 7100 nM
- GI50 (TK-10 renal): 2860 nM
- TGI (TK-10 renal): 12800 nM
- GI50 (SN12C renal): 458 nM
- TGI (SN12C renal): 3620 nM
- GI50 (SF-295 CNS): 1490 nM
- TGI (SF-295 CNS): 3290 nM
- GI50 (UACC-257 melanoma): 640 nM
- TGI (UACC-257 melanoma): 3760 nM
- GI50 (COLO 205 colon): 3720 nM
- TGI (COLO 205 colon): 14000 nM
- GI50 (SK-MEL-2 melanoma): 371 nM
- TGI (SK-MEL-2 melanoma): 1880 nM
- GI50 (NCI-H23 lung): 369 nM
- TGI (NCI-H23 lung): 2650 nM
- GI50 (OVCAR-8 ovarian): 1220 nM
- TGI (OVCAR-8 ovarian): 9140 nM
- GI50 (HCC-2998 colon): 2470 nM
- TGI (HCC-2998 colon): 8040 nM
- GI50 (SNB-75 CNS): 289 nM
- TGI (SNB-75 CNS): 2450 nM
- GI50 (SK-OV-3 ovarian): 560 nM
- TGI (SK-OV-3 ovarian): 4970 nM
- GI50 (SR leukemia): 712 nM
- TGI (SR leukemia): 6880 nM
- GI50 (HOP-62 NSCLC): 1350 nM
- TGI (HOP-62 NSCLC): 4790 nM
- GI50 (OVCAR-5 ovarian): 3100 nM
- TGI (OVCAR-5 ovarian): 48100 nM
- GI50 (PC-3 prostate): 864 nM
- TGI (PC-3 prostate): 6770 nM
- GI50 (UACC-62 melanoma): 223 nM
- TGI (UACC-62 melanoma): 772 nM
- GI50 (MDA-MB-231 breast): 551 nM
- TGI (MDA-MB-231 breast): 4810 nM
- GI50 (LOX IMVI melanoma): 469 nM
- TGI (LOX IMVI melanoma): 2540 nM
- GI50 (ACHN renal): 933 nM
- TGI (ACHN renal): 8460 nM
- GI50 (MOLT-4 leukemia): 1310 nM
- TGI (MOLT-4 leukemia): 4160 nM
- GI50 (CCRF-CEM leukemia): 1000 nM
- TGI (CCRF-CEM leukemia): 4950 nM
- GI50 (DU-145 prostate): 1140 nM
- TGI (DU-145 prostate): 21400 nM
- GI50 (HOP-92 NSCLC): 191 nM
- TGI (HOP-92 NSCLC): 683 nM
- GI50 (HCT-15 colon): 733 nM
- TGI (HCT-15 colon): 7020 nM
- GI50 (OVCAR-4 ovarian): 539 nM
- TGI (OVCAR-4 ovarian): > 100000 nM
- GI50 (SK-MEL-28 melanoma): 392 nM
- TGI (SK-MEL-28 melanoma): 1950 nM
- GI50 (UO-31 renal): 442 nM
- TGI (UO-31 renal): 2480 nM
- GI50 (HS 578T breast): 380 nM
- TGI (HS 578T breast): 3790 nM
